# Reference: patent US20060009478A1, “Methods for the treatment of back pain” (priority 2003, published 2006)
# Test system: patients with moderate to severe chronic low back pain
# Assay: Short Opiate Withdrawal Scale (SOWS), low back pain study
# [1] = patients with <4 weeks of dosing, ITT, change from baseline to day 4
# [2] = patients with <4 weeks of dosing, ITT, last dose date (baseline)
# [3] = patients with <4 weeks of dosing, ITT, opioid withdrawal monitoring day 1
# [4] = patients with <4 weeks of dosing, ITT, opioid withdrawal monitoring day 2
# [5] = patients with <4 weeks of dosing, ITT, opioid withdrawal monitoring day 3
# [6] = patients with <4 weeks of dosing, ITT, opioid withdrawal monitoring day 4
# [7] = patients with ≧4 weeks of dosing, ITT, change from baseline to day 1
# [8] = patients with ≧4 weeks of dosing, ITT, change from baseline to day 2
# [9] = patients with ≧4 weeks of dosing, ITT, change from baseline to day 3
# [10] = patients with ≧4 weeks of dosing, ITT, change from baseline to day 4
# [11] = patients with ≧4 weeks of dosing, ITT, last dose date (baseline)
# [12] = patients with ≧4 weeks of dosing, ITT, opioid withdrawal monitoring day 1
# [13] = patients with ≧4 weeks of dosing, ITT, opioid withdrawal monitoring day 2
# [14] = patients with ≧4 weeks of dosing, ITT, opioid withdrawal monitoring day 3
# [15] = patients with ≧4 weeks of dosing, ITT, opioid withdrawal monitoring day 4
smiles,measurement,setting,value
"COc1ccc2c3c1O[C@H]1C(=O)CC[C@@]4(O)[C@@H](C2)N(C)CC[C@]314 [OXY QID, oxycodone]","SOWS change from baseline, MAX",[1],0.8
same,"SOWS change from baseline, MEAN(SD)",[1],0.2 (0.41)
same,"SOWS change from baseline, MEDIAN",[1],0.1
same,"SOWS change from baseline, MIN",[1],−0.1
same,"SOWS score, MAX",[2],0.7
same,"SOWS score, MEAN(SD)",[2],0.3 (0.29)
same,"SOWS score, MEDIAN",[2],0.2
same,"SOWS score, MIN",[2],0.0
same,"SOWS score, MAX",[3],0.9
same,"SOWS score, MEAN(SD)",[3],0.2 (0.27)
same,"SOWS score, MEDIAN",[3],0.1
same,"SOWS score, MIN",[3],0.0
same,"SOWS score, MAX",[4],1.3
same,"SOWS score, MEAN(SD)",[4],0.2 (0.38)
same,"SOWS score, MEDIAN",[4],0.0
same,"SOWS score, MIN",[4],0.0
same,"SOWS score, MAX",[5],1.3
same,"SOWS score, MEAN(SD)",[5],0.2 (0.39)
same,"SOWS score, MEDIAN",[5],0.0
same,"SOWS score, MIN",[5],0.0
same,"SOWS score, MAX",[6],0.8
same,"SOWS score, MEAN(SD)",[6],0.1 (0.26)
same,"SOWS score, MEDIAN",[6],0.0
same,"SOWS score, MIN",[6],0.0
same,"SOWS change from baseline, MAXIMUM",[7],1.9
same,"SOWS change from baseline, MEAN(SD)",[7],0.3 (0.48)
same,"SOWS change from baseline, MEDIAN",[7],0.2
same,"SOWS change from baseline, MINIMUM",[7],−0.7
same,"SOWS change from baseline, MAXIMUM",[8],2.4
same,"SOWS change from baseline, MEAN(SD)",[8],0.3 (0.52)
same,"SOWS change from baseline, MEDIAN",[8],0.2
same,"SOWS change from baseline, MINIMUM",[8],−1.1
same,"SOWS change from baseline, MAXIMUM",[9],1.7
same,"SOWS change from baseline, MEAN(SD)",[9],0.3 (0.48)
same,"SOWS change from baseline, MEDIAN",[9],0.2
same,"SOWS change from baseline, MINIMUM",[9],−1.1
same,"SOWS change from baseline, MAXIMUM",[10],2.7
same,"SOWS change from baseline, MEAN(SD)",[10],0.2 (0.55)
same,"SOWS change from baseline, MEDIAN",[10],0.1
same,"SOWS change from baseline, MINIMUM",[10],−1.1
same,"SOWS score, MAXIMUM",[11],1.5
same,"SOWS score, MEAN(SD)",[11],0.3 (0.37)
same,"SOWS score, MEDIAN",[11],0.2
same,"SOWS score, MINIMUM",[11],0.0
same,"SOWS score, MAXIMUM",[12],2.5
same,"SOWS score, MEAN(SD)",[12],0.5 (0.53)
same,"SOWS score, MEDIAN",[12],0.4
same,"SOWS score, MINIMUM",[12],0.0
same,"SOWS score, MAXIMUM",[13],2.5
same,"SOWS score, MEAN(SD)",[13],0.6 (0.54)
same,"SOWS score, MEDIAN",[13],0.4
same,"SOWS score, MINIMUM",[13],0.0
same,"SOWS score, MAXIMUM",[14],2.2
same,"SOWS score, MEAN(SD)",[14],0.6 (0.53)
same,"SOWS score, MEDIAN",[14],0.4
same,"SOWS score, MINIMUM",[14],0.0
same,"SOWS score, MAXIMUM",[15],2.7
same,"SOWS score, MEAN(SD)",[15],0.5 (0.55)
same,"SOWS score, MEDIAN",[15],0.3
same,"SOWS score, MINIMUM",[15],0.0
same,Mean SOWS score in the first 24 hours following drug discontinuation,"patients with ≧4 weeks of dosing, p<0.01",2.6
